Laboratory results reported in article PMC11862924, “Phenylpyrazoles as Inhibitors of the m^6A RNA-Binding Protein YTHDF2” (JACS Au, 2025).
Entries after “also recorded” stand apart in the source; their conditions may differ.

Legend:
HCT116 = assay: CCK-8 proliferation assay, HCT116; type: cell-based; details: Homo sapiens, HCT-116; CCK-8 kit assay, triplicates, 72 h; read-out: Anti-proliferation activity against cancer cells (IC50), HCT116
Protocol: (§1) The JAR, K562, HCT116, and MOLM13 cells were seeded in 96-well plates (3000 cells/well). After being cultured overnight, compounds were added together with the DMSO treatment (0.1%) as a control. After 72 h, CCK-8 solution (Vazyme, A311) was added, and the cells were incubated at 37 °C for 4 h. The absorbance was measured at 450 nm using a plate reader (TECAN Spark).

[1] = molecular target: T1, YTHDF2 (residues 383–553) (Homo sapiens, UniProt Q9Y5A9); assay: Fluorescence polarization (FP) assay, YTHDF2–m6A RNA interaction; type: binding; details: 100 μM compound; YTHDF2 (residues 383–553, 20 nM), FAM-labeled m6A RNA probe 5 nM; average ± SD
T1 construct: A YTHDF2 YTH domain construct (residues 383–553) was subcloned to a pOPIN plasmid; made in house; host or cells: Escherichia coli BL21(DE3)
T1 sequence (Q9Y5A9 383-553): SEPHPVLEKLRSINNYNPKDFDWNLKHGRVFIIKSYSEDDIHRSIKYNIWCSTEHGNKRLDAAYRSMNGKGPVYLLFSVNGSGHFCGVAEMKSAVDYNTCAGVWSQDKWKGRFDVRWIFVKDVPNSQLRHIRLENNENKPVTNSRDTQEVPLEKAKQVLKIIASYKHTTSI
Protocol: The FP assay was performed in 384-well black plates (Corning no. 4514) with a total reaction volume of 15 μL. The final concentrations of protein (YTHDF2) and RNA were […], respectively, in a buffer containing 20 mM HEPES/KOH pH 7.5, 50 mM NaCl, 0.005% Tween 20, and 1 mM GSH (DTT). Compounds were incubated with protein, added FAM-m^6A RNA probe ([…](m6)ACUGUG) (purchased from IDT), and incubated at 4 °C for 30 min. The fluorescence polarization was measured using a plate reader (TECAN Spark) under an excitation wavelength of 485 nm and an emission wavelength of 535 nm with a bandwidth of 20 nm. […] The data were determined using GraphPad Prism 9.

JAR = assay: CCK-8 proliferation assay, JAR; type: cell-based; details: Homo sapiens; CCK-8 kit assay, triplicates, 72 h; read-out: Anti-proliferation activity against cancer cells (IC50), JAR
Protocol: as §1

[2] = MTT cytotoxicity assay, K562; type: cell-based; details: human, K562 cells, triplicates, read-out: Cytotoxicity against cancer cells (IC50), K562
Protocol: (§2) JAR, K562, and HCT116 cells were seeded in 96-well plates (3500 cells/well) and incubated for 8 h. The medium with different concentrations of compounds (100, 33.3, 11.1, 3.7, 1.2, and 0.4 μM) was added to the 96-well plates. Data were normalized to the medium with 0.1% DMSO. After incubation for 72 h, MTT solution (5 mg/mL, 20 μL) was added per well in a dark environment and incubated for 4 h. After the medium was discarded, DMSO (150 μL) was added per well, and the absorbance was measured at 492 nm by a plate reader (TECAN Spark).

[3] = MTT cytotoxicity assay, HCT116; type: cell-based; details: human, HCT116 cells, triplicates, read-out: Cytotoxicity against cancer cells (IC50), HCT116
Protocol: as §2

K562 = assay: CCK-8 proliferation assay, K562; type: cell-based; details: Homo sapiens, CCK-8 kit assay, triplicates, 72 h, read-out: Anti-proliferation activity against cancer cells (IC50), K562
Protocol: as §1

[4] = MTT cytotoxicity assay, JAR; type: cell-based; details: human, JAR cells, triplicates, read-out: Cytotoxicity against cancer cells (IC50), JAR
Protocol: as §2

YTHDF2 YTH domain = molecular target: T2, YTHDF2 YTH domain (Homo sapiens, UniProt Q9Y5A9); assay: AlphaScreen assay; details: for inhibition at 100 μM in AlphaScreen: 100 μM compound; for inhibitory IC50 in AlphaScreen (in words): Figures S3 and S4
T2 sequence (Q9Y5A9 383-553): T1 sequence (Q9Y5A9 383-553)
Protocol: Initially, the YTHDF2 YTH domain at different concentrations (0–2500 nM) was incubated with varied concentrations of RNA probes (5’-Bi-CGAm6ACUGUC–3′, IDT company) (5, 25, 50, and 100 nM) in 25 mM Hepes (pH 7.5), 100 mM NaCl, and 0.1% BSA to probe the optimal ratio between protein and RNA before the detection signal reached saturation. The AlphaScreen Histidine Detection Kit (Nickel Chelate) (PerkinElmer) 6760619 M and white 384-well Optiplates (PerkinElmer) were used. Anti-His receptor beads (PerkinElmer) (final concentration: 20 μg/mL) and streptavidin donor beads (final concentration: 20 μg/mL) were first added. The reaction mixture was then incubated at room temperature in a dark environment for 1 h to reach equilibrium. The optical signal was detected using a Tecan plate reader.
The inhibitory activities of the phenylpyrazoles (at 100 µM) against YTHDF2 binders
in the amplified luminescent proximity homogeneous assay (AlphaScreen).
phenylpyrazoles featuring a 2 -hydroxybenzoyl moiety R1 (blue) and a 4 -carboxyphenyl moiety
represent average values ± s.d.

YTHDF2 [5] = molecular target: T3, YTHDF2 (Homo sapiens, UniProt Q9Y5A9); assay: nanoDSF thermal shift assay; type: binding; details: for ΔTm at 5 µM: 5 μM compound; for ΔTm at 10 µM: 10 μM compound; for ΔTm at 25 µM: 25 μM compound
T3 construct: A YTHDF2 YTH domain construct (residues 383–553) was subcloned to a pOPIN plasmid; made in house; host or cells: Escherichia coli BL21(DE3)
T3 sequence (Q9Y5A9 383-553): T1 sequence (Q9Y5A9 383-553)
Protocol: NanoDSF was measured on a NanoTemper instrument (Prometheus NT.48). YTHDF2 protein was used at a concentration of 5 μM and incubated with 50, 25, 10, and 5 μM compound in buffer (100 mM KPi, pH 7.0, 250 mM NaCl, 10% Glycerol) for 50 min, in which 0.1% DMSO was used as the reference. The heat rate was set to 1 °C per minute, measured in a range between 20 and 90 °C.

YTHDF2 [6] = molecular target: T3, YTHDF2; assay: Electrophoretic mobility shift assay (EMSA); type: binding; details: for inhibition of the YTHDF2–m6A RNA interaction in EMSA at 100 μM (in words): 100 μM compound, 250 nM YTHDF2, FAM-labeled m6A RNA; for concentration-dependent inhibition of YTHDF2–m6A RNA complex formation in EMSA (in words): 3.1–100 μM compound, 250 nM YTHDF2, 20 nM FAM-labelled m6A RNA
Protocol: Compounds with different concentrations (3.1–100 μM) were incubated with 250 nM YTH-domain and 20 nM FAM-17mer-RNA in a buffer containing 20 mM HEPES, pH 8.2, 50 mM NaCl, 0.05% Triton X-100, and 5% v/v glycerol for 20 min at 4 °C. […] Gel imaging was performed in ChemiDoc MP (Bio-Rad), and Cy2/Alexa488 fluorescence was detected with a 1-min exposure time. Quantification of the gel image was performed by ImageJ.

IC50 (HCT116) [µM] | inhibition at 100 µM [1] [%] | IC50 (K562) [µM] | inhibition at 100 μM in AlphaScreen (YTHDF2 YTH domain) [%] | inhibitory IC50 in AlphaScreen (in words) (YTHDF2 YTH domain) | ΔTm at 5 µM (YTHDF2 [5]) [°C] | ΔTm at 10 µM (YTHDF2 [5]) [°C] | ΔTm at 25 µM (YTHDF2 [5]) [°C] | concentration-dependent inhibition of YTHDF2–m6A RNA complex formation in EMSA (in words) (YTHDF2 [6]) | Compound | IC50 (JAR) [µM] | IC50 at 72 h [2] [µM] | IC50 at 72 h [3] [µM] | IC50 at 72 h [4] [µM] | inhibition of the YTHDF2–m6A RNA interaction in EMSA at 100 μM (in words) (YTHDF2 [6])
> 50 | 17.5 ± 4.2 | > 50 |  |  |  |  |  |  | O=C(c1cnn(-c2ccc(C(F)(F)F)cc2)c1)c1ccccc1O [CK-48] | > 50 | 22.8 ± 2.5 | 43.1 ± 8.6 | 37 ± 12.7 | 
> 50 | 1.7 ± 6.5 | > 50 |  |  |  |  |  |  | NS(=O)(=O)c1ccc(-n2cc(C(=O)c3ccccc3O)cn2)cc1 [CK-49] | > 50 | 20.1 ± 12.3 | 29 ± 11.4 | 34.6 ± 5.9 | 
> 50 | 24.3 ± 4 | > 50 |  |  |  |  |  |  | CS(=O)(=O)c1ccc(-n2cc(C(=O)c3ccccc3O)cn2)cc1 [CK-50] | > 50 | 48.2 ± 11.1 | > 50 | > 50 | 
> 50 | 4.1 ± 3.7 | 30.1 ± 6.3 |  |  |  |  |  |  | Cc1ccc(-n2cc(C(=O)c3ccccc3O)cn2)cc1 [CK-51] | > 50 | 20.2 ± 15.4 | 18.5 ± 9.4 | 32.9 ± 14.2 | 
> 50 | 20.9 ± 3.8 | > 50 |  |  |  |  |  |  | Cc1ccc(O)c(C(=O)c2cnn(-c3ccc(C(=O)O)cc3)c2)c1 [CK-54] | > 50 | > 50 | > 50 | > 50 | 
> 50 | 41.8 ± 3.2 | 31.2 ± 8.9 | > 80 | low double-digit micromolar | 0.15 ± 0.14 | 0.43 ± 0.11 | 1.48 ± 0.52 | dose-dependently inhibited | CC(C)c1ccc(O)c(C(=O)c2cnn(-c3ccc(C(=O)O)cc3)c2)c1 [CK-55] | > 50 | 32.4 ± 22.1 | 49.5 ± 8.5 | 44.4 ± 13.5 | potent inhibition; also recorded: potently inhibited
> 50 | 37.4 ± 3.9 | > 50 |  |  |  |  |  |  | O=C(O)c1ccc(-n2cc(C(=O)c3cc(F)ccc3O)cn2)cc1 [CK-56] | > 50 | 23.9 ± 7.5 | 19.3 ± 2.5 | 41.2 ± 14.1 | potent inhibition
> 50 | 63.6 ± 10.8 | > 50 |  |  |  |  |  |  | O=C(O)c1ccc(-n2cc(C(=O)c3cc(Br)ccc3O)cn2)cc1 [CK-60] | > 50 | 16.4 ± 8.2 | 12.5 ± 6.4 | 37.1 ± 11.4 | 
> 50 | 34.4 ± 7.1 | > 50 |  |  | 0.3 ± 0.05 | 0.5 ± 0.14 | 0.48 ± 0.3 | dose-dependently inhibited | O=C(O)c1ccc(-n2cc(C(=O)c3cc([N+](=O)[O-])ccc3O)cn2)cc1 [CK-62] | > 50 | > 50 | > 50 | 42.6 ± 18.5 | potent inhibition; also recorded: potently inhibited
> 50 | 35.4 ± 6.5 | 43.9 ± 12 |  |  |  |  |  |  | CCc1ccc(O)c(C(=O)c2cnn(-c3ccc(C(=O)O)cc3)c2)c1 [CK-65] | 45.6 ± 3.9 | > 50 | > 50 | > 50 | 
47.2 ± 8.7 | 63.2 ± 6.9 | 38.8 ± 3.7 | > 80 | low double-digit micromolar |  |  |  |  | COc1ccc(O)c(C(=O)c2cnn(-c3ccc(C(=O)O)cc3)c2)c1 [CK-66] | 47.3 ± 6.3 | > 50 | > 50 | > 50 | 
41.6 ± 8.2 | 41.1 ± 7.7 | 33.4 ± 3.3 | > 80 | low double-digit micromolar | 0.47 ± 0.11 | 1.35 ± 0.66 | 2.27 ± 0.26 | dose-dependently inhibited | O=C(O)c1ccc(-n2cc(C(=O)c3cc(Cl)ccc3O)cn2)cc1 [CK-67] | 38.5 ± 9.2 | 34.9 ± 13.4 | 48.5 ± 4.9 | > 50 | potent inhibition; also recorded: potently inhibited
> 50 | 17.4 ± 10.5 | 45.5 ± 6.2 |  |  | 0.63 ± 0.08 | 1.42 ± 0.36 | 2.42 ± 0.24 | dose-dependently inhibited | O=C(O)c1ccc(-n2cc(C(=O)c3ccc(Br)cc3O)cn2)cc1 [CK-70] | 48.5 ± 3.9 | 42.1 ± 14.6 | 36.4 ± 2.8 | > 50 | potent inhibition; also recorded: potently inhibited
> 50 | 26.3 ± 6.8 | > 50 |  |  |  |  |  |  | Cc1ccc(C(=O)c2cnn(-c3ccc(C(=O)O)cc3)c2)c(O)c1 [CK-73] | > 50 | > 50 | > 50 | > 50 | 
> 50 | 64.7 ± 8.4 | > 50 |  |  |  |  |  |  | COc1cccc(O)c1C(=O)c1cnn(-c2ccc(C(=O)O)cc2)c1 [CK-85] | 46.2 ± 2.6 | > 50 | > 50 | > 50 | 
> 50 | 54.6 ± 8.4 | > 50 |  |  |  |  |  |  | O=C(O)c1ccc(-n2cc(C(=O)c3cc(F)cc(F)c3O)cn2)cc1 [CK-86] | > 50 | > 50 | > 50 | > 50 | 
> 50 | 28.8 ± 0.1 | 48.2 ± 6.3 |  |  |  |  |  |  | O=C(O)c1ccc(-n2cc(C(=O)c3ccc(Cl)cc3O)cn2)cc1 [CK-88] | 39 ± 3.2 | 43.2 ± 10.4 | > 50 | 25 ± 3.6 | 
> 50 | 44.4 ± 1.8 | > 50 |  |  |  |  |  |  | O=C(O)c1ccc(-n2cc(C(=O)c3ccc(F)cc3O)cn2)cc1 [CK-89] | > 50 | 43.8 ± 22.7 | 32.8 ± 7.5 | > 50 | 
> 50 | 52.2 ± 10.1 | > 50 |  |  |  |  |  |  | O=C(O)c1ccc(-n2cc(C(=O)c3cccc(Cl)c3O)cn2)cc1 [CK-96] | > 50 | 25.4 ± 7.8 | 20.6 ± 8.1 | 40.2 ± 12.7 | 
